Like-named read-outs stand apart in the source and are kept apart here. Ends that are not written are not given here.
What was measured:
human GIP receptor = test: biochemical; format: binding; conditions: read-out: GIP RBA
[1] = format: in vivo, NIH/Swiss mice
Protocol: (§1) In FIG. 3A, bars represent mean±sd, n=6-10. […] Gavage (1.5 g/kg) was given at t=0, Sample was taken at t=30 min. […] In FIG. 3B, points represent mean±sem, n=8-15.
Peptide was injected IP at t=−5 minutes into 4-hour fasted NIH/Swiss female mice. […] In FIG. 17 points represent mean+/−sem. […] Samples were taken at t=60, t=120 and t=180.

[2] = 30, 60 90 μg, men with IDDM; cited from earlier work
[3] = normal men, infusion; cited from earlier work
[4] = conscious rats, cited from earlier work; for EC(50) nmol/kg for inhibition of gastric emptying: subcutaneous 5 min before gavage
pancreatic CCK receptor = conditions: cited from earlier work
[5] = tested on: cardiomyocyte Gs-coupled receptors; test: cAMP production in neonatal cardiomyocytes (HTRF, Gs-coupled receptor activation); format: cell-based, rat; conditions: for EC50: neonatal rat cardiomyocytes
Protocol: Activation of cardiomyocyte Gs- and Gi-coupled receptors was determined as a measure of cAMP production.
Neonatal cardiomyocytes were isolated using a commercially available system. […] Sprague Dawley neonatal rats (1-2 days old) were decapitated and the beating heart dissected out into digestion buffer (Cellutron D1 buffer) to dissociate cells. […] The resuspended cells incubated in buffer (Cellutron D3 buffer) for sufficient time to allow optimal dispersion and minimize the need for pipetting to break up clumps. Cells released from the first 2 digestions were discarded since a significant portion of these is red blood cells. Resuspended cells were filtered and allowed to pre-plate for 1 hour on plastic in an incubator in NS media (Cellutron, N.J.) in order to remove fibroblasts. After 1 hour of pre-plating, floating cells are removed and the flask rinsed with NS media. The floating cells and the cells in the rinse media were combined and counted. Residual red blood cells, which are smaller that the cardiac myocytes, were not counted.
At Day 1, the NS media was replaced with fresh NS media.
Dose response was determined.
For Gs assays the positive control was 10 uM forskolin and negative control was buffer. For Gi assays the positive control was buffer and the negative control was 10 uM forskolin.

[6] = for Mouse Food Intake, % basal: dose per compound (4.8 to 25 nmol/Kg)
[7] = Body composition in DIO mice; format: in vivo, C57BL/6J mice
Description: During the study, the mice can continue to eat their high-fat diet. Water can be provided ad libitum throughout the study.
DIO mice can be implanted with subcutaneous (SC) intrascapular osmotic pumps to deliver either vehicle (50% dimethylsulfoxide (DMSO) in water) or a compound of the invention. […] Body weights and food intake can be measured over regular intervals throughout the study periods. Respiratory quotient (RQ, defined as CO2 production÷O2 consumption) and metabolic rate can be determined using whole-animal indirect calorimetry (Oxymax, Columbus Instruments, Columbus, Ohio). The mice can be euthanized by isoflurane overdose, and an index of adiposity (bilateral epididymal fat pad weight) measured. Moreover, prior to determination of epididymal weight, body composition (lean mass, fat mass) for each mouse can be analyzed using a Dual Energy X-ray Absorptiometry (DEXA) instrument per manufacturer's instructions (Lunar Piximus, GE Imaging System).

[8] = format: in vivo, NIH/Swiss mice; remark: listed apart in the source
Protocol: as §1
Points represent mean±sem.

[9] = format: in vivo, db/db mice; conditions: for glucose lowering in a diabetic mouse model (FIG. 4): db/db mice, IP
Protocol: Peptide was injected IP at t=0 immediately following baseline sample into 2-hour fasted db/db mice.

[10] = Intravenous glucose tolerance test (IVGTT), i.v. infusion; format: in vivo, rat; conditions: for insulin levels prior to the glucose challenge / insulinotropic response to an intravenous glucose challenge (IVGTT assay): 100 pmol/kg/min infusion, rats
Protocol: In the typical IVGTT assays the test sample was administered by IV infusion. The IV infusion of sample was initiated at t=−30 min and continued through t=90. IV glucose was given at t=0. To determine a duration of action using the IVGTT assay, the sample was injected SC as a single injection at one time point indicated (e.g., t=−240, −120, −60 or −30) prior to administration of glucose. IV glucose was given at t=0.
As described, fed, isoflurane anesthetized HSD male rats were intubated and cannulated via femoral artery and vein and allowed to stabilize for 1 hour. […] At t=0, an i.v. bolus of 5.7 mmol/kg D-glucose was administered over 2 minutes. Samples for glucose measurement and insulin concentrations were taken at various time points before and after (0 to 90 minutes) glucose infusion.

[11] = IVGTT duration of action assay (single SC injection before glucose); format: in vivo, rat
Protocol: To determine a duration of action using the IVGTT assay, the sample was injected SC as a single injection at one time point indicated (e.g., t=−240, −120, −60 or −30) prior to administration of glucose. IV glucose was given at t=0.

[12] = Telemetry of circulatory effects in conscious rats; conditions: 80 nmol/kg intravenous
[13] = Body weight gain in diet-induced-obesity (DIO) mice; format: in vivo, C57BL/6 mice
[14] = Gastric emptying (FIG. 23A); conditions: in vivo
[15] = Intracellular calcium levels (FIG. 23B)
[16] = Glucose in rats (summary table); format: in vivo, rat
[17] = 30 minutes, read-out: EC50 of cAMP production (this experiment, FIGS. 18A/18B)
[18] = read-out: EC50 of cardiomyocyte Gs-coupled receptor activation (three independent experiments)

CC[C@H](C)[C@H](NC(=O)[C@H](CO)NC(=O)[C@H](Cc1ccc(O)cc1)NC(=O)[C@H](CC(=O)O)NC(=O)[C@H](CO)NC(=O)[C@@H](NC(=O)[C@H](Cc1ccccc1)NC(=O)[C@@H](NC(=O)CNC(=O)[C@H](CCC(=O)O)NC(=O)[C@@H](C)NC(=O)[C@@H](N)Cc1ccc(O)cc1)[C@@H](C)O)[C@@H](C)CC)C(=O)N[C@@H](C)C(=O)N[C@@H](CCSC)C(=O)N[C@@H](CC(=O)O)C(=O)N[C@@H](CCCCN)C(=O)N[C@H](C(=O)N[C@@H](Cc1c[nH]cn1)C(=O)N[C@@H](CCC(N)=O)C(=O)N[C@@H](CCC(N)=O)C(=O)N[C@@H](CC(=O)O)C(=O)N[C@@H](Cc1ccccc1)C(=O)N[C@H](C(=O)N[C@@H](CC(N)=O)C(=O)N[C@@H](Cc1c[nH]c2ccccc12)C(=O)N[C@@H](CC(C)C)C(=O)N[C@@H](CC(C)C)C(=O)N[C@@H](C)C(=O)N[C@@H](CCC(N)=O)C(=O)N[C@@H](CCCCN)C(=O)N[C@@H](CO)C(=O)NCC(=O)N[C@@H](C)C(=O)N1CCC[C@H]1C(=O)N1CCC[C@H]1C(=O)N1CCC[C@H]1C(=O)N[C@@H](CO)C(N)=O)C(C)C)[C@@H](C)CC [0601GIP4192]
IC50 (human GIP receptor): 7 nM
OGTT/GL (%) ([1]; 350 nmol/kg): −16%

CC[C@H](C)[C@H](NC(=O)[C@@H]1CCCN1C(=O)CNC(=O)[C@H](Cc1ccccc1)NC(=O)[C@H](CC(N)=O)NC(=O)[C@H](CC(N)=O)NC(=O)[C@H](CO)NC(=O)[C@H](CO)NC(=O)[C@H](Cc1c[nH]cn1)NC(=O)[C@@H](NC(=O)[C@H](CC(C)C)NC(=O)[C@H](Cc1ccccc1)NC(=O)[C@H](CC(N)=O)NC(=O)[C@H](C)NC(=O)[C@H](CC(C)C)NC(=O)[C@H](CCCNC(=N)N)NC(=O)[C@H](CCC(N)=O)NC(=O)[C@@H](NC(=O)[C@H](C)NC(=O)[C@@H]1CSSC[C@H](NC(=O)[C@@H](N)CCCCN)C(=O)N[C@@H](CC(N)=O)C(=O)N[C@@H]([C@@H](C)O)C(=O)N[C@@H](C)C(=O)N[C@@H]([C@@H](C)O)C(=O)N1)[C@@H](C)O)C(C)C)C(=O)N[C@@H](CC(C)C)C(=O)N1CCC[C@H]1C(=O)N1CCC[C@H]1C(=O)N[C@H](C(=O)N[C@@H](CC(N)=O)C(=O)N[C@H](C(=O)NCC(=O)N[C@@H](CO)C(=O)N[C@@H](CC(N)=O)C(=O)N[C@H](C(=O)N[C@@H](Cc1ccc(O)cc1)C(N)=O)[C@@H](C)O)C(C)C)[C@@H](C)O [pramlintide, ^25,28,29Pro-h-amylin]
half-emptying time of the stomach [2]: approximately doubled the half-emptying time of the stomach

BNP: brain natriuretic peptide
increase in sodium excretion [3]: 2 fold
reduction in plasma renin, angiotensin II and aldosterone secretion [3]: 50%

DY(SO3)MGWMDF [CCK-8]
EC(50) nmol/kg for inhibition of gastric emptying [4]: 12.8 nmol/kg
potency of binding displacement relative to unsulfated CCK-8 or CCK-4 (pancreatic CCK receptor): 1000-5000

HAEGTFTSDVSSYLEGQAAKEFIAWLVKGR [GLP-1]
cAMP activity in cardiomyocytes [5]: very low to no significant activity

HSDGIFTDSYSRYRKQMAVKKYLAAVLGKRYKQRVKNK-NH2 [PACAP38]
inhibition of gastric emptying at doses of 100 μg [4]: either weakly active or inactive

KCNTATCATQRLANFLVRSSNNLGPVLPPTNVGSNTY [rat amylin]
Mouse Food Intake, % basal ([6]; 30 min): −58 % basal
Mouse Food Intake, % basal ([6]; 60 min): −40 % basal
Mouse Food Intake, % basal ([6]; 120 min): −36.5 % basal
Mouse Food Intake, % basal ([6]; 180 min): −35.5 % basal
food intake ([6]; mouse, in vivo, ip): significant decrease in food intake within 30 min
EC(50) nmol/kg for inhibition of gastric emptying [4]: 0.23 nmol/kg

VIP: vasoactive intestinal peptide (HSDAVFTDNYTRLRKQMAVKKYLNSILN; ends and bridges not checked; UniProt P01282 125-152, looked up)
inhibition of gastric emptying at doses of 100 μg [4]: either weakly active or inactive

Y(D-Ala)EGTFISDYSIAMDKIHQQDFVNWLLAQKPSSGAPPPS-NH2 [Compound 0601GIP3794]
body composition ([7]; mouse, in vivo): slight decrease in percentage body fat with an increase in body protein without a concomitant reduction in body weight
OGTT/GL (%) ([1]; 10 nmol/kg): −17% 10 nmol/kg
OGTT/GL (%) ([1]; 350 nmol/kg): −21% 350 nmol/kg,
OGTT (compared to 0601GIP3794) ([1]; mouse, in vivo): =794
OGTT ED50 ([1]; mouse, in vivo): ED50 ~2 nmol/kg,
OGTT response ([1]; mouse, in vivo): −21%
Basal Glucose Lowering at 80 nmol/Kg ([8]; 80 nmol/kg, AUC180): −9%, AUC180
Basal Glucose Lowering at Peptide Conc. of 80 nmol/kg ([8]; 80 nmol/kg, AUC240): −7 to −20%,
glucose lowering profile over 240 min (FIGS. 8-10) ([8]; 2-hour fasted NIH/Swiss mice, IP): gradually increasing activity that peaks at t=120 min, and is more sustained than native GIP or its D-Ala2 version
glucose lowering in normal mice (FIGS. 3A and 3B) ([8]; NIH/Swiss mice, IP): significantly more efficacious than full length GIP
GL (glucose lowering, compared to 0601GIP3794) ([8]; mouse, in vivo): =794
basal glucose lowering (% maximal decrease) ([8]; mouse, in vivo): −20%
Basal Glucose Lowering in db/db ([9]; 80 nmol/kg, t = 120): −33%, 80 nmol/kg,
glucose lowering in a diabetic mouse model (FIG. 4) [9]: pronounced and long-acting effect in lowering glucose
insulin levels prior to the glucose challenge [10]: significant rise in insulin levels
insulinotropic response to an intravenous glucose challenge (IVGTT assay) [10]: significant enhancement of the insulinotropic response
IVGTT > = < Compared to 0601GIP3794 ([10]; rat, in vivo): =
Standard IVGTT assay IV infusion (insulin AUC 0-30 min) ([10]; rat, in vivo, iv): 249
Duration of action in assay (insulin AUC 0-30 min) ([11]; SC inj T = −30 min): 198
Duration of action in assay (insulin AUC 0-30 min) ([11]; SC inj T = −60 min): 159
Duration of action in assay (insulin AUC 0-30 min) ([11]; SC inj T = −120 min): 204
Duration of action in assay (insulin AUC 0-30 min) ([11]; SC inj T = −240 min): 79
DOA (duration of action, compared to 0601GIP3794) ([11]; time not stated): =794
EC50 [5, 17]: 11.7 nM
EC50 [5, 18]: 29.8 nM
food intake ([6]; mouse, in vivo, ip): did not acutely inhibit food intake
dP/dt [12]: increased dP/dt similarly
effect on heart rate [12]: transient relative to GIP
effect on mean arterial pressure [12]: decreased mean arterial pressure
systolic and diastolic pressures [12]: sustained lowering of systolic and diastolic pressures

YAEGTFISDYSIAMDKIHQQDFVNWLLAQKGKKNDWKHNITQ-OH [GIP, reference compound]
BWt (mDIO) ([13]; DIO mice): not active
weight loss / body weight change in diet-induced-obese mice ([13]; mouse, in vivo): did not cause weight loss
Body Comp (mDIO) ([7]; DIO mice): No effect on lean mass
OGTT ([1]; mice, effect on glucose): decreases
OGTT response ([1]; mouse, in vivo): −10%
Glucose mice ([8]; mice): weak
basal glucose lowering (% maximal decrease) ([8]; mouse, in vivo): 0%
glucose lowering in a diabetic mouse model (FIG. 4) [9]: modest and wanes over time
insulin levels prior to the glucose challenge [10]: significant rise in insulin levels
insulinotropic response to an intravenous glucose challenge (IVGTT assay) [10]: significant enhancement of the insulinotropic response
EC50 [5, 17]: 9.1 nM
EC50 [5, 18]: 15.6 nM
Gastric Emptying [14]: not active
iCa [15]: not active
Glucose rats [16]: not active
food intake ([6]; mice, peptide injected IP): not active
food intake ([6]; mouse, in vivo, ip): did not acutely inhibit food intake
inhibition of gastric emptying at doses of 100 μg [4]: either weakly active or inactive
dP/dt [12]: increased dP/dt similarly
effect on mean arterial pressure [12]: had no effect

adrenomedullin: amylin family peptide hormone (YRQSMNNFQGLRSFGCRFGTCTVQKLAHQIYQFTDKDKDNVAPRSKISPQGY; ends and bridges not checked; cysteine pairing not given here; UniProt P35318 95-146, looked up)
inhibition of gastric emptying at doses of 100 μg [4]: either weakly active or inactive

glucagon: peptide hormone
inhibition of gastric emptying at doses of 100 μg [4]: either weakly active or inactive

insulin: peptide hormone
inhibition of gastric emptying at doses of 100 μg [4]: either weakly active or inactive

neuropeptide Y: peptide hormone of the pancreatic polypeptide family
inhibition of gastric emptying at doses of 100 μg [4]: either weakly active or inactive
